{"source": "paper PMC9794608", "about": "(Frontiers in Veterinary Science, 2022)", "key": {"laboratory beagle dogs [1]": {"test_system": "laboratory beagle dogs", "test": "Sapanisertib escalating oral dose tolerability assessment", "assay_type": "in vivo", "experimental": "Determining a 0.1 mg/kg sapanisertib dosage for repeat dose studies was based upon extrapolation of previous studies in mice ([13], [20]), leading to initial evaluation of escalating individual oral doses of 0.1, 0.5, 0.65, and 0.8 mg/kg in one male (M), and one female (F) dog with a ≥3-day washout period between doses.\nThe initial efforts with sapanisertib focused on dose selection for ultimate testing in combination with orally administered trametinib dimethyl sulfoxide (trametinib) in nontumor-bearing laboratory beagle dogs. […] Sapanisertib dose escalation consisted of increased individual doses beginning with 0.10 mg/kg sapanisertib followed by a washout period of at least 3 days, and up to 7 days, between doses (Figure 2). Dogs lost body weight when dosed with ≥0.5 mg/kg sapanisertib. By day 23, the male dog had lost approximately 19% of initial body weight, while the female dog lost 7% body weight, and sapanisertib exposure was discontinued (Figure 2A). There was a trend toward recovery of modest amounts of body weight in these two dogs with the passage of sufficient time, post dose.\nFigure 2 Sapanisertib escalating oral dose tolerability assessment in dogs. […] (A) Body weight (b.w.) changes with respect to time of first dose, in response to dosing as indicated. (B) Sapanisertib impact on select clinical pathology parameters for the testing days shown on x axis. Values on the y axis represent pre-treatment samples (0 days). Yellow-shaded area indicates reference range of values for normal healthy beagle dogs (Charles River Labs). Serum enzymes: ALT, alanine aminotransferase; AST, aspartate aminotransferase; ALP, alkaline phosphatase."}, "laboratory beagle dogs [2]": {"test_system": "laboratory beagle dogs", "test": "Repeat dose tolerability: clinical observations, hematology, serum chemistry, coagulation, urinalysis", "assay_type": "in vivo", "experimental": "Laboratory Beagle dogs (Charles River Labs, Mattawan, MI) served as surrogates in testing compounds proposed for application in canine clinical cancer care. The animals were at least six months old and weighed 6.4–8.8 kg at the initiation of study. They had routine veterinary care and had not been used in any previous studies. The study was conducted in AAALAC-accredited animal facilities [Charles River Laboratories, Inc., Mattawan, MI; NIH Office of Laboratory Animal Welfare Assurance approval (https://olaw.nih.gov/assured/app/index.html)], under review, monitoring, and approval of the facility's Institutional Animal Care and Use Committee according to U.S. Public Health Service national guidelines and regulations for the care and use of laboratory animals. The study was not designed to incorporate Good Laboratory Practices (GLP) regulatory criteria. Animals on study were monitored daily or more frequently and body weights were recorded, while periodic specimens were obtained for laboratory analyses. Clinical pathology analyses were included for hematology, serum chemistry, coagulation, urinalysis, and chemical bioanalysis was accomplished for pharmacokinetics (PK) (Table 1, repeat dose study) (Charles River Laboratories, Mattawan, MI).\nSix male and six female beagle dogs were enrolled in a parallel, three-arm, fixed, repeat oral-dose study. […] All dogs were dosed on study day 1 to obtain single dose PK samples, and then dosed serially days 4–20. Dogs were fasted overnight prior to dosing and fed ad libitum 2 h (hrs) following dose administration.\nOn days 10 and 15, a 2-h post-dose sample was collected. […] Treatment schedule and clinical pathology specimen sampling intervals are outlined in Table 1. […]\nSampling for hematology, serum chemistry, coagulation and urinalysis was conducted to facilitate monitoring treatment effects over various time points, and values obtained were compared to pre-treatment measurements for each subject (Table 1)."}, "[3]": {"conditions": "by day 23, escalating oral doses 0.1, 0.5, 0.65, 0.8 mg/kg"}, "[4]": {"conditions": "≥ 0.5 mg/kg, both sexes, as low as"}}, "data": [{"smiles": "CC(C)n1nc(-c2ccc3oc(N)nc3c2)c2c(N)ncnc21", "note": "[Sapanisertib]", "values": [{"measurement": "Serum chloride, times the pre-study value", "setting": "laboratory beagle dogs [1]; 0.8 mg/kg, male", "result": 0.89, "unit": "x"}, {"measurement": "Serum sodium, times the pre-study value", "setting": "laboratory beagle dogs [1]; 0.8 mg/kg, male", "result": 0.98, "unit": "x"}, {"measurement": "Loss of body weight, female dog", "setting": "laboratory beagle dogs [1]; [3]", "result": 7, "unit": "%"}, {"measurement": "Loss of initial body weight, male dog", "setting": "laboratory beagle dogs [1]; [3]", "result": "approximately 19%"}, {"measurement": "Dose at which dogs lost body weight", "setting": "laboratory beagle dogs [1]; individual oral doses, 1 male and 1 female", "result": "≥ 0.5", "unit": "mg/kg"}, {"measurement": "Red blood cell reticulocyte counts", "setting": "laboratory beagle dogs [1]; ≥ 0.5 mg/kg, both sexes", "result": "moderate to marked decreases"}, {"measurement": "Serum cholesterol concentrations", "setting": "laboratory beagle dogs [1]; ≥ 0.5 mg/kg, both sexes", "result": "minimal to mild increases"}, {"measurement": "Alanine aminotransferase (ALT), times the pre-study value", "setting": "laboratory beagle dogs [1]; [4]", "result": "≥ 0.41", "unit": "x"}, {"measurement": "Aspartate aminotransferase (AST), times the pre-study value", "setting": "laboratory beagle dogs [1]; [4]", "result": "≥ 0.68", "unit": "x"}, {"measurement": "Serum alkaline phosphatase (ALP), times the pre-study value", "setting": "laboratory beagle dogs [1]; [4]", "result": "≥ 0.36", "unit": "x"}, {"measurement": "Serum ALT, times pre-study", "setting": "laboratory beagle dogs [2]; Day 20, one female dog (23502), considered unlikely to be inhibitor related", "result": 2.10, "unit": "x"}, {"measurement": "Dogs with minimal to marked increases in urine protein concentration", "setting": "laboratory beagle dogs [2]; Day 25, greater than pre-study values, 4 dogs per group", "result": "three of four"}, {"measurement": "Urine protein concentration, highest value (up to)", "setting": "laboratory beagle dogs [2]; Day 25, semi-quantitatively by urine dipstick", "result": "≥ 1,000 mg/dL"}, {"measurement": "Urine glucose (up to)", "setting": "laboratory beagle dogs [2]; Day 25, semi-quantitatively by urine dipstick, individuals of both sexes", "result": "up to 250 mg/dL"}, {"measurement": "Urine pH (up to)", "setting": "laboratory beagle dogs [2]; Day 25, Group 2 males and both sexes in Group 3", "result": "≥ 9.0", "unit": "pH"}, {"measurement": "Activated partial thromboplastin time (APTT) prolonged, times pretreatment (up to)", "setting": "laboratory beagle dogs [2]; Days 6, 11, 15, 22, and/or 25, individual dogs, within normal reference range", "result": "up to 1.21 x"}, {"measurement": "Serum phosphorus concentrations, times pre-study (as low as)", "setting": "laboratory beagle dogs [2]; Days 7 and 20, both sexes in all groups", "result": "≥ 0.74", "unit": "x"}, {"measurement": "Cholesterol concentrations, times pre-study (up to)", "setting": "laboratory beagle dogs [2]; Days 7 and 20, both sexes in Group 2 and males in Group 3", "result": "up to 1.50 x"}, {"measurement": "Group mean APTT versus dogs given trametinib alone", "setting": "laboratory beagle dogs [2]; at 11 days and thereafter, p < 0.05", "result": "significantly different"}, {"measurement": "Prothrombin time (PT) assays", "setting": "laboratory beagle dogs [2]; compared to pretreatment samples", "result": "No analogous effect"}, {"measurement": "Blood neutrophils, times individual pre-study values", "setting": "laboratory beagle dogs [2]; one male (23002) and one female (23501), Group 2, days 20 and 25, up to", "result": "up to 1.95 x"}, {"measurement": "Individual animal fibrinogen concentration, times pretreatment (up to)", "setting": "laboratory beagle dogs [2]; various time points, most pronounced in Group 3", "result": "up to 2.61 x"}]}]}
